Experimental data from patent US20210253454A1, “MICELLAR DELIVERY METHOD” (EVONIK OPERATIONS GMBH, priority 2018, published 2021).

What was measured:
[1] = test system: Pseudomonas aeruginosa (ATCC 15442) biofilm; test: Biocidal activity on biofilm, CDC Biofilm reactor, glass coupons, 1-4 hrs; format: cell-based; settings: initial 100 ppm
Source text: We evaluated the biocidal activity of PAA-surfactant solutions on microbial biofilms using a CDC Biofilm reactor from BioSurface Technologies. This reactor supplies a continuous flow of nutrient broth through a container that exposes bacteria growing on glass coupons to shear forces. The setup mimics at least two features typical for oilfield operations: a renewable nutrient source and shear forces applied to the biofilms. All reactor parts were cleaned with a solution of 1% Neutrad lab soap and rinsed well with deionized water, and allowed to dry prior to autoclaving on a 20 minutes gravity cycle to sterilize.
Pseudomonas aeruginosa (ATCC 15442) biofilm was grown for 48 hours in the biofilm reactor on glass coupons at 25° C. A solution containing 300 mg/L of sterile trypticase soy broth (TSB) was used as nutrient feed. 1 mL of the working inoculum of P. aeruginosa was added through the inoculation port. The first step was a 24 hours batch phase followed by 24 hours in continuous flow mode, when 100 mg/L TSB solution was pumped into the stirring reactor for about 24 hours at room temperature to create a matured biofilm on the coupon surfaces.
(§1) Upon completion of the biofilm growth phase, the coupons were removed and rinsed by immersion into 30 mL dilution buffer. Coupons were placed into sterile centrifuge test tubes and 4 mL biocide or buffer were added. Then the tubes were vortexed on low speed to ensure complete coverage of the coupon. At the appropriate time, the biocide was poured off, and reserved for chemical analysis of PAA and hydrogen peroxide. Then, a 10 mL aliquot of chemical neutralizing Letheen broth with 0.5% sodium thiosulfate was added to each tube. One treated coupon from each treatment group was removed at final time point for visual analysis.
The compositions were diluted with deionized water before use, such that the initial concentration of PAA-surfactant active ingredient was 100 ppm.
In order to recover remaining viable bacteria from the coupons, the test tubes with coupons were vortexed for 30 s on highest setting, and then sonicated for 30 s at 45 kHz. This treatment was then repeated twice. After that, the broth was diluted serially into Butterfield's buffer, and the dilutions plated on 3M™ Petrifilm™ Aerobic Count Plates. The plates were incubated for 48 hours at 35° C., and then counted. Calculations were performed to obtain the Log10 CFU/mL of the solutions at each time point.

[2] = Oxidizer (PAA, hydrogen peroxide) concentration in treatment solution during biofilm test; format: physicochemical; settings: initial 100 ppm
Procedure: as §1
PAA and Hydrogen peroxide concentrations were monitored during the test by using Chemetrics test kits K-7913F and K-5543.
We further evaluated the biocidal activity of PAA-surfactant solutions on microbial biofilms using a CDC Biofilm reactor from BioSurface Technologies as described in Example 9. The three biocide solutions were also as described in Example 9, but the contact time was increased to about 72 hours under agitation. Additionally, for this test, the biocide aliquot was increased from the standard method amount of 4 mL up to 30 mL. These adjustments were made to more accurately simulate expected field conditions. The recovery was performed as described in the Example 8. […] Chemical analysis indicated only a slight reduction in concentrations of both PAA and hydrogen peroxide over the 72-hour time period.

For `CC(=O)OO` [PAA, peracetic acid], the Log10 reduction ([1]; 1 hrs) was 1.4 Log10, the Log10 remaining ([1]; 1 hrs) was 7.8 Log10 CFU/mL and the Log10 reduction ([1]; 2 hrs) was 2.2 Log10. For the same molecule, the Log10 remaining ([1]; 2 hrs) was 7.0 Log10 CFU/mL, the Log10 reduction ([1]; 4 hrs) was 3.1 Log10 and the Log10 remaining ([1]; 4 hrs) was 6.1 Log10 CFU/mL. The “H2O2, ppm” value ([2]; 1 hrs) was 35 ppm, the “PAA, ppm” value ([2]; 1 hrs) was 63 ppm and the “H2O2, ppm” value ([2]; 2 hrs) was 27 ppm. For the same molecule, the “PAA, ppm” value ([2]; 2 hrs) was 54 ppm, the “H2O2, ppm” value ([2]; 4 hrs) was 10 ppm and the “PAA, ppm” value ([2]; 4 hrs) was 30 ppm.
